{"source": "paper PMC7046186", "about": "“Targeting tRNA-synthetase interactions towards novel therapeutic discovery against eukaryotic pathogens” (PLoS Neglected Tropical Diseases, 2020)", "format_in_all_cases": "biochemical", "key": {"[1]": {"target": "T1, Lm AlaRS (Leishmania major, UniProt Q4QBJ3)", "T1 construct": "gene LMJF_22_1540; codon-optimised synthetic gene in pTYB2; C-terminal intein tag cleaved off; expressed in E. coli BL21(DE3)", "T1 sequence (Q4QBJ3 1-962)": "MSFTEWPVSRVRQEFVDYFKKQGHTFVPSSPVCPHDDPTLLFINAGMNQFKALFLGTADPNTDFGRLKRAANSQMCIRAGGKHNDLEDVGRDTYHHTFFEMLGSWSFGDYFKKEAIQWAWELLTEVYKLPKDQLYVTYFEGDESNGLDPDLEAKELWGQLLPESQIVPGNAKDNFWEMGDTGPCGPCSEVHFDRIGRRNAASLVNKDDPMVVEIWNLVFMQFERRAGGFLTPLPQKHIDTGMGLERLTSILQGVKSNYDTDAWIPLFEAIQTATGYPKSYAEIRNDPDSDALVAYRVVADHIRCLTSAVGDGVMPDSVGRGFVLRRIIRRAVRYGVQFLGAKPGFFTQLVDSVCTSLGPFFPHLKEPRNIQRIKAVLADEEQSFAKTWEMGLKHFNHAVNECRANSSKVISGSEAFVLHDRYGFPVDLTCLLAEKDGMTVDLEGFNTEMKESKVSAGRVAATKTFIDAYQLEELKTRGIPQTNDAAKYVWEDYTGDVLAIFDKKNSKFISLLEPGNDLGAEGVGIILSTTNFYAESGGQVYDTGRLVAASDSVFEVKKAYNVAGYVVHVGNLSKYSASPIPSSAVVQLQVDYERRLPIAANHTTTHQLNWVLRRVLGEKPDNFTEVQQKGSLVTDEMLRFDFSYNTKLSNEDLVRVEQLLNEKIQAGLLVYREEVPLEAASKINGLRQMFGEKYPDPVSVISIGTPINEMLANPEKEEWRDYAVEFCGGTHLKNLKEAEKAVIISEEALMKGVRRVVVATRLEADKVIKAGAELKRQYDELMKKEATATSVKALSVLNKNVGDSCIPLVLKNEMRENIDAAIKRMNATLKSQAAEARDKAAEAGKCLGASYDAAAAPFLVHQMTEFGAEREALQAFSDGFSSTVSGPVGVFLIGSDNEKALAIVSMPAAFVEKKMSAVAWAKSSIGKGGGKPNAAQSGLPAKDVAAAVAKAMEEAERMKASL", "test": "ATP/PPi exchange", "settings": "2 mM ATP, 90 μM alanine, 2 mM [32P]-PPi, 10 mM Mg2+, pH 7.2, 37 °C"}, "[2]": {"target": "T2, human AlaRS (Homo sapiens, UniProt P49588)", "T2 construct": "gene AARS1; pET21a, C-terminal 6x-His tag; expressed in E. coli Rosetta(DE3)", "T2 sequence (P49588 1-968)": "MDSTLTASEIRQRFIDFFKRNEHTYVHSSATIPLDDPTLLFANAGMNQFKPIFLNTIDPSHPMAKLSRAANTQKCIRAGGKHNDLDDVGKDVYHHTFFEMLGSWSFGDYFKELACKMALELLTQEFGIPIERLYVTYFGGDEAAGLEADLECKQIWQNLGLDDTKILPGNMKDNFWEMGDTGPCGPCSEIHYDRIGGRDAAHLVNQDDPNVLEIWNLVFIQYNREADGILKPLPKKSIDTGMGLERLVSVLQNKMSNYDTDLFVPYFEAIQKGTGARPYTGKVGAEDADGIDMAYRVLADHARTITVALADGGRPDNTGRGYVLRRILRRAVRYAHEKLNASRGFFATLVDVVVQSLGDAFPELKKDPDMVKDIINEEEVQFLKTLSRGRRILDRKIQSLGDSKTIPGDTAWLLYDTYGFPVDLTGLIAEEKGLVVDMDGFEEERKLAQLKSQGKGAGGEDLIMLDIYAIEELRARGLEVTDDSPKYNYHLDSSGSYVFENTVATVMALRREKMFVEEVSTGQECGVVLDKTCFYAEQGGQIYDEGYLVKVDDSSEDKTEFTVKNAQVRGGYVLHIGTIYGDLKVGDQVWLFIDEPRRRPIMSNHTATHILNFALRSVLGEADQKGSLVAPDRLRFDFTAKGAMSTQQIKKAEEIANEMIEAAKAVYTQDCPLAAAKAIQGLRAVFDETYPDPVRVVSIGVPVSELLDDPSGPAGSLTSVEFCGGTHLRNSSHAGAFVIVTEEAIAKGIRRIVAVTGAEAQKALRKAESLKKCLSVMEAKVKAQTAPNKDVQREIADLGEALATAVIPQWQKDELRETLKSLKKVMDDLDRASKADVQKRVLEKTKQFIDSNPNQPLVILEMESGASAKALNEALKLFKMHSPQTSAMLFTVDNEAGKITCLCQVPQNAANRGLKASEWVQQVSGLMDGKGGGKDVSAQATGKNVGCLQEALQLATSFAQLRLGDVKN", "test": "ATP/PPi exchange", "settings": "2 mM ATP, 90 μM alanine, 2 mM [32P]-PPi, 10 mM Mg2+, pH 7.2, 37 °C"}, "[3]": {"target": "T3, Lm ThrRS (Leishmania major, UniProt E9AEW4)", "T3 construct": "gene LMJF_35_1410; codon-optimised synthetic gene in pTYB2; C-terminal intein tag cleaved off; expressed in E. coli BL21(DE3)", "T3 sequence (E9AEW4 1-787)": "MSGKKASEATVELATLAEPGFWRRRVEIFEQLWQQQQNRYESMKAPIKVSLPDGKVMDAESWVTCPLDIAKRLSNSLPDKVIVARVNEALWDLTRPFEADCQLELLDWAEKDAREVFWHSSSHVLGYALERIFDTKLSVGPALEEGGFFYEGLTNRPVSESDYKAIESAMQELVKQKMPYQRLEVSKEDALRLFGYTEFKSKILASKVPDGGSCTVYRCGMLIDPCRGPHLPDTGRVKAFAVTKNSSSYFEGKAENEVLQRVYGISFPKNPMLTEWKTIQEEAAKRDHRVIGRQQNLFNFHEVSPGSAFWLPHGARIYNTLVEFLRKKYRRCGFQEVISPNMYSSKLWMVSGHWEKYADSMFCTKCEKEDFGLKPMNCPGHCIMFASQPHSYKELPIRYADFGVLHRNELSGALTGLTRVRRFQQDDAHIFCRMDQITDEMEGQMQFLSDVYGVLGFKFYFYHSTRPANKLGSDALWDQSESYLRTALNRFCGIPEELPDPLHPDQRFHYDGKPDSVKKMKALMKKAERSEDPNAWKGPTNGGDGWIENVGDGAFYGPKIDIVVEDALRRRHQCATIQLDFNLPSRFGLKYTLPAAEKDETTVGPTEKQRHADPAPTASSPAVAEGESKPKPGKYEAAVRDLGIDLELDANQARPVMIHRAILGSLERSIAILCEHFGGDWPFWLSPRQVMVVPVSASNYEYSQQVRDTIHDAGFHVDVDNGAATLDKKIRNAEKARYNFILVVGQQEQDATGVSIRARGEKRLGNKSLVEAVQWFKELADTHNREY", "test": "aminoacylation of Lm tRNA-Thr with […]-Thr", "settings": "labelled compound, ATP"}, "[4]": {"target": "T2, human AlaRS", "test": "ATP/PPi exchange (amino acid activation)", "settings": "2 mM ATP, 2 mM [32P]-PPi, 10 mM Mg2+, pH 7.2, 37 °C, 90 μM alanine"}, "[5]": {"target": "T4, Tc AlaRS (Trypanosoma cruzi, UniProt Q4D747)", "T4 construct": "gene Tc00.1047053506863.10; codon-optimised synthetic gene in pET21b; C-terminal 6x-His tag; expressed in E. coli XJb(DE3)", "T4 sequence (Q4D747 1-959)": "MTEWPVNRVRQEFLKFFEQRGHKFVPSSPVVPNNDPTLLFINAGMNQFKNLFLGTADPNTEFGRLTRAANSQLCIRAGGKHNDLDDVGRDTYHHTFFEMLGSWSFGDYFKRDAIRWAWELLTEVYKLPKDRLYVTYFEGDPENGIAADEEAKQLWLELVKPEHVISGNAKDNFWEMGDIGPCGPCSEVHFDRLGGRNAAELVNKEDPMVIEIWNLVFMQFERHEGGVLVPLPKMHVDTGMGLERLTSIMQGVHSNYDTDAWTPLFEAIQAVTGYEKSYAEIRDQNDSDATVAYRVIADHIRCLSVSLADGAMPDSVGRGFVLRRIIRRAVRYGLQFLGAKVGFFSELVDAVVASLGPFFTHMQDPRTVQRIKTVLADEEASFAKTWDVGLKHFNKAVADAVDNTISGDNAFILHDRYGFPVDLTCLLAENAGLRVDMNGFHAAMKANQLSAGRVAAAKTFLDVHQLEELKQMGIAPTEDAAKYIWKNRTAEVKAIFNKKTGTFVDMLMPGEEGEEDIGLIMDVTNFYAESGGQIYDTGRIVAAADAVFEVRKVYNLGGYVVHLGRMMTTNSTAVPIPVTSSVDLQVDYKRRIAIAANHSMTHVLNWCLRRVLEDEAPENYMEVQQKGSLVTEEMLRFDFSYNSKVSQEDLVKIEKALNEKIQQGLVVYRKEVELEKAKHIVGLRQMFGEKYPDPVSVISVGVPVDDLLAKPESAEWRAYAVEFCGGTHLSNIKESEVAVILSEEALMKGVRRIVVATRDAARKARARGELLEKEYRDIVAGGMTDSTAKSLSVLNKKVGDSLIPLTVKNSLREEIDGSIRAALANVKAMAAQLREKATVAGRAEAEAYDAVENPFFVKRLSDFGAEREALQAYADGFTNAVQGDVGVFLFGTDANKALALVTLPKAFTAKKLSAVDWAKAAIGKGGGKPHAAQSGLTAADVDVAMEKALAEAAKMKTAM", "test": "aminoacylation of Tc tRNA-Ala with […]-Ala", "settings": "labelled compound, ATP"}}, "data": [{"smiles": "Nc1ncnc2c1ncn2[C@@H]1O[C@H](COP(=O)(O)OP(=O)(O)OP(=O)(O)O)[C@@H](O)[C@H]1O", "note": "[ATP]", "values": [{"measurement": "ATP/PPi exchange", "setting": "[1]", "result": "we used pyrophosphate exchange to monitor ATP-dependent amino acid activation"}, {"measurement": "ATP/PPi exchange", "setting": "[2]", "result": "we used pyrophosphate exchange to monitor ATP-dependent amino acid activation"}]}, {"smiles": "C[C@@H](O)[C@H](N)C(=O)O", "note": "[threonine]", "values": [{"measurement": "aminoacylation of Lm tRNA-Thr with [14C]-Thr", "setting": "[3]", "result": "re-screened against Lm Threonyl-tRNA synthetase (ThrRS) and tRNA^Thr aminoacylation"}]}, {"smiles": "C[C@H](N)C(=O)O", "note": "[alanine]", "values": [{"measurement": "ATP/PPi exchange (amino acid activation)", "setting": "[4]", "result": "Treatment of the human AlaRS enzyme with the MNP inhibitors had no effect on amino acid activation"}, {"measurement": "aminoacylation of Tc tRNA-Ala with [14C]-Ala", "setting": "[5]", "result": "aminoacylation inhibition assay using Tc AlaRS and tRNA^Ala"}]}]}
